pIC50: −log10 of the molar value. Read-outs that look alike come from different tables or passages of the source.
What was measured:
Type in all cases: biochemical
KDM5B (PLU-1) = biological target: T1, KDM5B (PLU-1) (Homo sapiens, UniProt Q9UGL1); assay: Histone lysine demethylase AlphaLISA assay, KDM5B
T1 construct: BRIC; 1-809; E. coli; host or cells: E. coli
T1 sequence (Q9UGL1 1-809): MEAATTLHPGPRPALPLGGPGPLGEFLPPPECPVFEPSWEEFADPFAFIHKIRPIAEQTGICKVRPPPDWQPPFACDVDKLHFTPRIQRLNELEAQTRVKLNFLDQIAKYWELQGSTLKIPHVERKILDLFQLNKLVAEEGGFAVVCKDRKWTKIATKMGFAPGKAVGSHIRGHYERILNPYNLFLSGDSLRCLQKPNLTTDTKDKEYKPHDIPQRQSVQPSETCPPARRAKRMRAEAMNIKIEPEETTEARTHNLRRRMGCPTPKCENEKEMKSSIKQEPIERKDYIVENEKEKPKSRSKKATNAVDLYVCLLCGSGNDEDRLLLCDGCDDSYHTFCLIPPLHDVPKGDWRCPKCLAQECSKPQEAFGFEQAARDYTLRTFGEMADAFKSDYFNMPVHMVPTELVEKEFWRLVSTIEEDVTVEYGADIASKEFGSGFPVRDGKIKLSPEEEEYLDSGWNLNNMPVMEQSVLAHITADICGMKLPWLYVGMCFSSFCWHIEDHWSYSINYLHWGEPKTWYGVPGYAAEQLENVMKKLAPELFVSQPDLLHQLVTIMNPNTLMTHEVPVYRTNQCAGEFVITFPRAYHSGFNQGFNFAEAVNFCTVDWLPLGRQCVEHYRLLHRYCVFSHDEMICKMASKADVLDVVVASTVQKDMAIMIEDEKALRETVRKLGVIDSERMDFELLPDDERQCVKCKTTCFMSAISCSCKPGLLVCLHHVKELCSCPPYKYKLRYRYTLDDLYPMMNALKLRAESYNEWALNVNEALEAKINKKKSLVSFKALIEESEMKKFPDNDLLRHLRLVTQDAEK
Method: (§1) The compounds of the application, or a pharmaceutically acceptable salt, or solvate, or prodrug thereof, are tested in an in vitro AlphaLISA assay. Enzymes are dissolved in enzyme buffer and incubated before they are added to DMSO solutions of compounds of the application, or a pharmaceutically acceptable salt, or solvate, or prodrug thereof, in enzyme buffer. The reaction mixture is then incubated for an additional period of time before substrate solution is added and then the resulting mixture again incubated. Acceptor beads and suspended Epigenetic Buffer from stock are added and the suspension is again incubated before a suspension of streptavidin donor beads in Epigenetic Buffer is added. After an additional period of incubation, the plates are read.
(§2) The ability of compounds of the application to inhibit the histone lysine demethylase activity in vitro of different enzymes was determined.
(§3) The reaction mixture was incubated for another 10 minutes before 5 μL of substrate solution was added and the resulting mixture was then incubated at room temperature. […] After incubation at room temperature in the dark, the plates were read.
(§4) Enzyme Buffer: 50 mM Hepes (pH 7.4-8.0), 0.003-0.01% Tween-20, 0.1% BSA; 5 μM (NH4)2Fe(SO4)2.

KDM4C (JMJD2C) = biological target: T2, KDM4C (JMJD2C) (Homo sapiens, UniProt Q9H3R0); assay: Histone lysine demethylase AlphaLISA assay, KDM4C
T2 construct: KDM4C; BRIC, Denmark; 1-349; E. coli; host or cells: E. coli
T2 sequence (Q9H3R0 1-349): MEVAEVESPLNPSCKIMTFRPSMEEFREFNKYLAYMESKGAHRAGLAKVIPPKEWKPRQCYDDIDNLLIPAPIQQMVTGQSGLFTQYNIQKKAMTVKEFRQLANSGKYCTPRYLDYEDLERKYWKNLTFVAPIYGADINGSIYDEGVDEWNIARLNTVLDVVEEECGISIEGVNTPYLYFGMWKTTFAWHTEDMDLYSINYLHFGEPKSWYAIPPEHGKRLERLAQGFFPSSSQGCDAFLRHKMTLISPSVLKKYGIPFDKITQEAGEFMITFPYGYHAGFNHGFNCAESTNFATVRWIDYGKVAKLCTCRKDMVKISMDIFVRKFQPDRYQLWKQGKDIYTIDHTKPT
Method: as §1, §2, §3, §4

KDM2B (FBXL10) = biological target: T3, KDM2B (FBXL10) (Homo sapiens, UniProt Q8NHM5); assay: Histone lysine demethylase AlphaLISA assay, KDM2B; settings: AlphaLISA, in vitro; read-out: HDME Inhibition KDM2B
T3 construct: KDM2B; BPS,; 1-650; Bac; purchased BPS Bioscience, US; host or cells: baculovirus system
T3 sequence (Q8NHM5 1-650): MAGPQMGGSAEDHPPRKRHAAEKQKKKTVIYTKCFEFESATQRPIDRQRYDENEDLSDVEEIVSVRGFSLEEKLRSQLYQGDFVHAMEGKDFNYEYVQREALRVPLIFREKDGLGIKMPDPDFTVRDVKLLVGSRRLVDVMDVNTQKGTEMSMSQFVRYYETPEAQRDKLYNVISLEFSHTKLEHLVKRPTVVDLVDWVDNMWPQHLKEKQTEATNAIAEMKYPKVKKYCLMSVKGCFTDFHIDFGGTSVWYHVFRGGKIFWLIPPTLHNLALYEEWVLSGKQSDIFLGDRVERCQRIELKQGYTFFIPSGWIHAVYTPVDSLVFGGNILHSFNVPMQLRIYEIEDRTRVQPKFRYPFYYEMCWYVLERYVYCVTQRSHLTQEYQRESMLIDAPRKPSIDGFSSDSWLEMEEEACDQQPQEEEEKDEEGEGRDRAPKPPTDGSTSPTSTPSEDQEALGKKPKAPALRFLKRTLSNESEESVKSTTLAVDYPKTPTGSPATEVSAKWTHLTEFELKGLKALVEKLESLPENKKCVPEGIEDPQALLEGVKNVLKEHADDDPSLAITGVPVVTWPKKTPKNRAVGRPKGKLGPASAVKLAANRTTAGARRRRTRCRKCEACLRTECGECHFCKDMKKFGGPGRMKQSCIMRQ
Method: as §1, §2, §3, §4

PHF8 (KDM7) = biological target: T4, PHF8 (KDM7) (Homo sapiens, UniProt Q9UPP1); assay: Histone lysine demethylase AlphaLISA assay, PHF8
T4 construct: KDM7 (PHF8); BRIC; 1-1322; Bac
Method: as §1, §2, §3, §4

[1] = AlphaLISA assay, read-out: HDME Inhibition KDM5B (IC50)
[2] = AlphaLISA, in vitro, read-out: HDME Inhibition KDM5B
[3] = AlphaLISA assay, read-out: HDME Inhibition KDM4C (IC50)
[4] = AlphaLISA, in vitro, read-out: HDME Inhibition KDM4C
[5] = AlphaLISA, in vitro, read-out: HDME Inhibition PHF8
[6] = AlphaLISA assay, read-out: HDME Inhibition PHF8 (IC50)

pIC50 (KDM5B (PLU-1); [1]) | pIC50 (KDM5B (PLU-1); [2]) | pIC50 (KDM4C (JMJD2C); [3]) | pIC50 (KDM4C (JMJD2C); [4]) | pIC50 (KDM2B (FBXL10)) | pIC50 (PHF8 (KDM7); [5]) | pIC50 (KDM5B (PLU-1)) | pIC50 (PHF8 (KDM7); [6]) | SMILES
< 5.00 | < 5.00 | < 5.00 | < 5.00 | 6.50 | 5.94 | – | – | Cc1cc(C(=O)O)cc(CNCc2ncc(CCC(N)=O)n2Cc2ccc(F)cc2)n1 [Compound 114, 2-[({[5-(2-carbamoylethyl)-1-[(4-fluorophenyl)methyl]-1H-imidazol-2-yl]methyl}amino)methyl]-6-methylpyridine-4-carboxylic acid]
< 5.00 | < 5.00 | < 5.00 | < 5.00 | 5.85 | 5.48 | – | – | Cc1cc(OCc2ccccc2)c(CCNCc2cc(C(=O)O)cc(C)n2)nn1 [Compound 82, 2-[({2-[4-(benzyloxy)-6-methylpyridazin-3-yl]ethyl)amino)methyl]-6-methylpyridine-4-carboxylic acid]
< 5.00 | < 5.00 | < 5.00 | < 5.00 | 6.42 | 5.96 | – | – | CC(O)c1nnc(CNCc2cc(C(=O)O)cc(CO)n2)n1Cc1ccc(F)cc1 (stereo not shown) [Compound 77, 2-{[({4-[(4-fluorophenyl)methyl]-5-(1-hydroxyethyl)-4H-1,2,4-triazol-3-yl}methyl)amino]methyl}-6-(hydroxymethyl)pyridine-4-carboxylic acid]
< 5.00 | < 5.00 | < 5.00 | < 5.00 | 5.38 | 5.59 | – | – | Cc1cc(C(=O)O)cc(CNCc2nccn2CCc2ccccc2)n1 [Compound 61, 2-methyl-6-[({[1-(2-phenylethyl)-1H-imidazol-2-yl]methyl}amino)methyl]pyridine-4-carboxylic acid]
– | – | – | 6.08 | 6.85 | 6.48 | 7.68 | – | O=C(O)c1cc(CO)nc(CNCc2nccn2Cc2ccc(F)cc2)c1 [Compound 81, 2-{[({1-[(4-fluorophenyl)methyl]-1H-imidazol-2-yl}methyl)amino]methyl}-6-(hydroxymethyl)pyridine-4-carboxylic acid]
< 5.00 | < 5.00 | < 5.00 | < 5.00 | 6.55 | 6.28 | – | – | Cc1nnc(CNCc2cc(C(=O)O)cc(CO)n2)n1Cc1ccc(F)cc1 [Compound 72, 2-{[({4-[(4-fluorophenyl)methyl]-5-methyl-4H-1,2,4-triazol-3-yl}methyl)amino]methyl}-6-(hydroxymethyl)pyridine-4-carboxylic acid]
< 5.00 | < 5.00 | < 5.00 | < 5.00 | 5.78 | 5.18 | – | – | CCn1cnc2cc(Cn3cnnc3CNCc3cc(C(=O)O)cc(C)n3)ccc21 [Compound 41, 2-{[({4-[(1-ethyl-1H-1,3-benzodiazol-5-yl)methyl]-4H-1,2,4-triazol-3-yl}methyl)amino]methyl}-6-methylpyridine-4-carboxylic acid]
– | 5.21 | < 5.00 | < 5.00 | 6.98 | 5.88 | – | – | CCOc1ccc(CC(C)C)c(CNCc2cc(C(=O)O)cc(CO)n2)n1 [Compound 101, 2-[({[6-ethoxy-3-(2-methylpropyl)pyridin-2-yl]methyl}amino)methyl]-6-(hydroxymethyl)pyridine-4-carboxylic acid]
– | – | < 5.00 | < 5.00 | 7.15 | 5.94 | 6.20 | – | CCc1cnc(CNCc2cc(C(=O)O)cc(CO)n2)n1Cc1ccc(F)cc1 [Compound 100, 2-{[({5-ethyl-1-[(4-fluorophenyl)methyl]-1H-imidazol-2-yl}methyl)amino]methyl}-6-(hydroxymethyl)pyridine-4-carboxylic acid]
– | – | < 5.00 | < 5.00 | 6.47 | 5.94 | 6.19 | – | O=C(O)c1cc(CO)nc(CNCc2nncn2CCCc2ccccc2)c1 [Compound 78, 2-(hydroxymethyl)-6-[({[4-(3-phenylpropyl)-4H-1,2,4-triazol-3-yl]methyl}amino)methyl]pyridine-4-carboxylic acid]
< 5.00 | < 5.00 | < 5.00 | < 5.00 | 6.35 | 6.06 | – | – | CSc1cnc(CNCc2cc(C(=O)O)cc(C)n2)n1Cc1ccc(F)cc1 [Compound 43, 2-{[({1-[(4-fluorophenyl)methyl]-5-(methylsulfanyl)-1H-imidazol-2-yl}methyl)amino]methyl}-6-methyl pyridine-4-carboxylic acid]
< 5.00 | < 5.00 | < 5.00 | < 5.00 | 5.55 | < 5.00 | – | < 5.00 | Cc1cc(C(=O)O)cc(CNCc2nnc3n2C(c2ccccc2)CNC3)n1 (stereo not shown) [Compound 113, 2-methyl-6-{[({5-phenyl-5H,6H,7H,8H-[1,2,4]triazolo[4,3-a]pyrazin-3-yl}methyl)amino]methyl}pyridine-4-carboxylic acid]
– | 7.70 | – | 5.15 | 6.62 | < 5.00 | – | < 5.00 | CCN(CCN(C)C)C(=O)CNCc1cc(C(=O)O)cc(CO)n1 [Compound 102, 2-{[({[2-(dimethylamino)ethyl](ethyl)carbamoyl}methyl)amino]methyl}-6-(hydroxymethyl)pyridine-4-carboxylic acid]
< 5.00 | < 5.00 | < 5.00 | < 5.00 | 5.94 | 5.93 | – | – | CCc1cnc(CNCc2cc(C(=O)O)cc(C)n2)n1CCc1ccccc1 [Compound 54, 2-[({[5-ethyl-1-(2-phenylethyl)-1H-imidazol-2-yl]methyl}amino)methyl]-6-methylpyridine-4-carboxylic acid]

Reference: patent publication US9802941B2, “Compounds and methods for inhibiting histone demethylases” (Gilead Sciences, Inc., priority 2014, dated 2017)
